Laboratory results as given in US10202339B2, “Therapeutic compounds and compositions” (AGIOS PHARMACEUTICALS, INC., priority 2012, dated 2019).

Biological target: IDH2 R140Q (Homo sapiens (Human), UniProt P48735, R140Q)
Assay: IDH2 R140Q enzymatic cofactor depletion assay (diaphorase/resazurin)
Format: biochemical
Details: IDH2 R140Q enzyme, one hour preincubation with compound, one hour reaction; read-out: Enz R140Q
Procedure: The reaction was terminated by the addition of a second enzyme, diaphorase, and a corresponding substrate, resazurin. Diaphorase reduces resazurin to the highly fluorescent resorufin with the concomitant oxidation of NADPH to NADP, both halting the IDH2 reaction by depleting the available cofactor pool and facilitating quantitation of the amount of cofactor remaining after a specific time period through quantitative production of an easily detected fluorophore.
The compound was then incubated for one hour at room temperature with the enzyme; before starting the IDH2 reaction with the addition of 10 μl of substrate mix containing 50 μM NADPH and 6.3 mM α-KG in the buffer described above. After a further one hour of incubation at room temperature, the reaction was halted and the remaining NADPH measured through conversion of resazurin to resorufin by the addition of 25 μl Stop Mix (36 μg/ml diaphorase enzyme and 60 μM resazurin; in buffer). After one minute of incubation the plate was read on a plate reader at Ex544/Em590.

IDH2 R140Q, sequence (P48735 40-452 R140Q): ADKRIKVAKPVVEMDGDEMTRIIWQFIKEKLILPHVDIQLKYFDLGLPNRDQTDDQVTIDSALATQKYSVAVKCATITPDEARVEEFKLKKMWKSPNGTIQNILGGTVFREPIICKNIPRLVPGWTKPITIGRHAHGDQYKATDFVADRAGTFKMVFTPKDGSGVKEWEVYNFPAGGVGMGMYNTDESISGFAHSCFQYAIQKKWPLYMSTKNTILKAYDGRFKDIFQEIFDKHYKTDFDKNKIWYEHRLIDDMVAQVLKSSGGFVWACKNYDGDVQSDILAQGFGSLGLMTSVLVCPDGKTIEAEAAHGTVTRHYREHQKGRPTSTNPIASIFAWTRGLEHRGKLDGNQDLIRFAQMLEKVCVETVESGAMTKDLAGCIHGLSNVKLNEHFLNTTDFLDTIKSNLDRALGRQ

`O=C(Nc1ccc(F)c(C(F)(F)F)c1)Nc1cc(S(=O)(=O)NCC(F)(F)F)ccc1C1CCCCO1` (stereo not drawn) [Compound 167, 3-(3-(4-fluoro-3-(trifluoromethyl)phenyl)ureido)-4-(tetrahydro-2H-pyran-2-yl)-N-(2,2,2-trifluoroethyl)benzenesulfonamide] showed an IC50 of 0.1 to 1 µM.

Work on `O=C(Nc1ccc(F)c(C(F)(F)F)c1)Nc1cc(S(=O)(=O)Nc2ccccc2)ccc1-c1ccsc1` [Compound 21] yielded an IC50 of 1 to 10 µM.

`O=C(Nc1cccc(S(=O)(=O)NCC(F)(F)F)c1)Nc1cc(C(F)(F)F)ccn1` [Compound 337, N-(2,2,2-trifluoroethyl)-3-(3-(4-(trifluoromethyl)pyridin-2-yl)ureido)benzenesulfonamide] gave an IC50 of 0.1 to 1 µM.

In the case of `O=C(Nc1cc(S(=O)(=O)NCC(F)(F)F)ccc1-c1ccccc1)Nc1c(F)cccc1F` [Compound 41, 2-(3-(2,6-difluorophenyl)ureido)-N-(2,2,2-trifluoroethyl)-[1,1′-biphenyl]-4-sulfonamide], the IC50 is reported as 0.1 to 1 µM.

`Cc1ccc(C)c(NC(=O)Nc2cc(S(=O)(=O)Nc3ccccc3)ccc2-c2ccsc2)c1` [Compound 11, 3-(3-(2,5-dimethylphenyl)ureido)-N-phenyl-4-(thiophen-3-yl)benzenesulfonamide] showed an IC50 of 0.1 to 1 µM.

With `O=C(Nc1cccc(Cl)n1)Nc1cc(S(=O)(=O)NCC(F)(F)F)ccc1-c1ccccc1` [Compound 79, 2-(3-(6-chloropyridin-2-yl)ureido)-N-(2,2,2-trifluoroethyl)-[1,1′-biphenyl]-4-sulfonamide] the IC50 was 0.1 to 1 µM.

`O=C(Nc1cccc(C(F)(F)F)c1)Nc1cc(S(=O)(=O)NCC2CC2)ccc1C1=CCOCC1` [Compound 154, N-(cyclopropylmethyl)-4-(3,6-dihydro-2H-pyran-4-yl)-3-(3-(3-(trifluoromethyl)phenyl)ureido)benzene sulfonamide] gave an IC50 of 0.1 to 1 µM.

Work on `CNS(=O)(=O)c1ccc(-c2ccsc2)c(NC(=O)Nc2cccc(C(F)(F)F)c2)c1` [Compound 111, N-methyl-4-(thiophen-3-yl)-3-(3-(3-(trifluoromethyl)phenyl)ureido)benzenesulfonamide] yielded an IC50 of 0.1 to 1 µM.

`CC1(NS(=O)(=O)c2ccc(-c3ccsc3)c(NC(=O)Nc3cccc(C(F)(F)F)c3)c2)CC1` [Compound 151, N-(1-methylcyclopropyl)-4-(thiophen-3-yl)-3-(3-(3-(trifluoromethyl)phenyl)ureido)benzenesulfonamide] showed an IC50 of 0.1 to 1 µM.

Work on `O=C(Nc1cccc(C(F)(F)F)c1)Nc1cc(S(=O)(=O)NCc2ccccc2)ccc1-c1ccsc1` [Compound 136, N-benzyl-4-(thiophen-3-yl)-3-(3-(3-(trifluoromethyl)phenyl)ureido)benzenesulfonamide] yielded an IC50 of 0.1 to 1 µM.

`CC(C)Oc1ccc(S(=O)(=O)NCC(F)(F)F)cc1NC(=O)Nc1cccc(C(F)(F)F)c1` [Compound 185, 4-isopropoxy-N-(2,2,2-trifluoroethyl)-3-(3-(3-(trifluoromethyl)phenyl)ureido)benzenesulfonamide] gave an IC50 of 0.1 to 1 µM.

`CONS(=O)(=O)c1ccc(-c2ccsc2)c(NC(=O)Nc2cccc(C(F)(F)F)c2)c1` [Compound 138, N-methoxy-4-(thiophen-3-yl)-3-(3-(3-(trifluoromethyl)phenyl)ureido)benzenesulfonamide] was tested, and the IC50 was 0.1 to 1 µM.

In the case of `Cc1cccc(-c2ccc(S(=O)(=O)NC3CCOCC3)cc2NC(=O)Nc2cccc(C(F)(F)F)c2)c1` [Compound 47, 3′-methyl-N-(tetrahydro-2H-pyran-4-yl)-2-(3-(3-(trifluoromethyl)phenyl)ureido)-[1,1′-biphenyl]-4-sulfonamide], the IC50 is reported as 0.1 to 1 µM.

`CCCNS(=O)(=O)c1ccc(-c2ccsc2)c(NC(=O)Nc2cccc(C(F)(F)F)c2)c1` [Compound 113, N-propyl-4-(thiophen-3-yl)-3-(3-(3-(trifluoromethyl)phenyl)ureido)benzenesulfonamide] showed an IC50 of 0.1 to 1 µM.

For `O=C(Nc1ncc(Cl)s1)Nc1cc(S(=O)(=O)NCC(F)(F)F)ccc1C1CCCCO1` (stereo not drawn) [Compound 169, 3-(3-(5-chlorothiazol-2-yl)ureido)-4-(tetrahydro-2H-pyran-2-yl)-N-(2,2,2-trifluoroethyl)benzene sulfonamide], the IC50 was 0.1 to 1 µM.
